Assay results as given in the supplement of paper PMC8617591.

Key:
[1] = tested on: Mycobacterium tuberculosis Erdman (autoluminescent); assay: AUC25, normalised area under dose response up to IC25 (three-drug combination) (fraction (0-1)); higher = more potent at low dose
Method: (§1)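 DiaMOND equipotent three-drug combination dose responses (10 doses, 1.5- or 2-fold spacing, centred on IC90) against autoluminescent M. tuberculosis Erdman in 8 in vitro models. Read-out is OD600, or luminescence for the intracellular and dormancy models, normalised to untreated wells. Hill-fit Einf, AUC25 and GRinf are potency metrics; FIC50 and FIC90 are total Loewe fractional inhibitory concentrations as log2 (negative = synergy).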

[2] = tested on: Mycobacterium tuberculosis Erdman (autoluminescent); assay: Einf, fitted maximum growth inhibition of three-drug combination (fraction); higher = stronger maximal inhibition
Method: as §1

[3] = tested on: Mycobacterium tuberculosis Erdman (autoluminescent); assay: total FIC50 (Loewe) at 50% inhibition, three-drug combination (log2); higher = more antagonistic
Method: as §1

[4] = tested on: Mycobacterium tuberculosis Erdman (autoluminescent); assay: total FIC90 (Loewe) at 90% inhibition, three-drug combination (log2); higher = more antagonistic
Method: as §1

[5] = tested on: Mycobacterium tuberculosis Erdman (autoluminescent); assay: GRinf, maximum normalised growth rate inhibition (three-drug combination) (unitless (-1 to 1)); higher = less effect (negative = killing)
Method: as §1

COc1nc2ccc(Br)cc2cc1[C@@H](c1ccccc1)[C@@](O)(CCN(C)C)c1cccc2ccccc12 [bedaquiline] + NNC(=O)c1ccncc1 [isoniazid] + O=[N+]([O-])c1cn2c(n1)OC[C@@H](OCc1ccc(OC(F)(F)F)cc1)C2 [pretomanid]
Conditions | AUC25, [1] | Einf, [2] | GRinf, [5] | total FIC50, [3] | total FIC90, [4]
in vitro model: acidic pH 5.7, time point: constant (~7 days, model-specific) | 0.13 | 0.923 | -0.789 | 0.219 | –
in vitro model: acidic pH 5.7, time point: terminal (~4-5 doublings, model-specific) | 0.108 | 0.988 | -0.439 | 0.209 | 0.765
in vitro model: intracellular J774, time point: constant = terminal | – | 0.996 | -0.588 | – | 0.892

Conditions | AUC25, [1] | Einf, [2] | GRinf, [5] | total FIC50, [3] | total FIC90, [4]
in vitro model: butyrate, time point: constant (~7 days, model-specific) | 0.0753 | 0.947 | -0.112 | 1.04 | 1.16
in vitro model: butyrate, time point: terminal (~4-5 doublings, model-specific) | 0.0523 | 0.975 | -0.0872 | 0.897 | 0.889
in vitro model: cholesterol 0.05 mM, time point: constant (~7 days, model-specific) | 0.0895 | 0.722 | -0.21 | 0.775 | –
in vitro model: cholesterol 0.05 mM, time point: terminal (~4-5 doublings, model-specific) | 0.0672 | 0.924 | -0.246 | 6.17 | 0.608
in vitro model: cholesterol-high 0.2 mM, time point: constant (~7 days, model-specific) | 0.0717 | 0.887 | -0.196 | 0.37 | –
in vitro model: cholesterol-high 0.2 mM, time point: terminal (~4-5 doublings, model-specific) | 0.0327 | 0.992 | -0.535 | 0.584 | 0.0623
in vitro model: dormancy (butyrate + nitrate, low O2), time point: constant (~7 days, model-specific) | 0.0674 | 0.924 | 0.224 | -0.188 | -0.985
in vitro model: dormancy (butyrate + nitrate, low O2), time point: terminal (~4-5 doublings, model-specific) | 0.0671 | 0.994 | -0.159 | -0.769 | -0.523
in vitro model: standard 7H9 glycerol, time point: constant = terminal | 0.0757 | 0.966 | -0.103 | 0.177 | 0.0648
in vitro model: valerate, time point: constant (~7 days, model-specific) | 0.129 | 0.886 | -0.333 | 0.632 | 1.13
in vitro model: valerate, time point: terminal (~4-5 doublings, model-specific) | 0.109 | 0.953 | -0.161 | 0.661 | 1.97

COc1nc2ccc(Br)cc2cc1[C@@H](c1ccccc1)[C@@](O)(CCN(C)C)c1cccc2ccccc12 [bedaquiline] + O=[N+]([O-])c1cn2c(n1)OC[C@@H](OCc1ccc(OC(F)(F)F)cc1)C2 [pretomanid] + CO[C@H]1/C=C/O[C@@]2(C)Oc3c(C)c(O)c4c(O)c(c(/C=N/N5CCN(C6CCCC6)CC5)c(O)c4c3C2=O)NC(=O)/C(C)=C\C=C\[C@H](C)[C@H](O)[C@@H](C)[C@@H](O)[C@@H](C)[C@H](OC(C)=O)[C@@H]1C [rifapentine]
Conditions | AUC25, [1] | Einf, [2] | GRinf, [5] | total FIC50, [3] | total FIC90, [4]
in vitro model: acidic pH 5.7, time point: constant (~7 days, model-specific) | 0.116 | 0.943 | -0.512 | 0.516 | –
in vitro model: acidic pH 5.7, time point: terminal (~4-5 doublings, model-specific) | 0.0913 | 0.987 | -0.4 | 0.436 | 0.698
in vitro model: intracellular J774, time point: constant = terminal | – | 0.985 | -0.531 | – | 0.0139

Conditions | AUC25, [1] | Einf, [2] | GRinf, [5] | total FIC50, [3] | total FIC90, [4]
in vitro model: butyrate, time point: constant (~7 days, model-specific) | 0.088 | 0.933 | -0.0563 | 0.655 | 0.181
in vitro model: butyrate, time point: terminal (~4-5 doublings, model-specific) | 0.0789 | 0.971 | -0.0507 | 0.541 | 0.744
in vitro model: cholesterol 0.05 mM, time point: constant (~7 days, model-specific) | 0.106 | 0.751 | -0.236 | 0.454 | –
in vitro model: cholesterol 0.05 mM, time point: terminal (~4-5 doublings, model-specific) | 0.0678 | 0.929 | -0.207 | 0.994 | 0.888
in vitro model: cholesterol-high 0.2 mM, time point: constant (~7 days, model-specific) | 0.0733 | 0.918 | -0.21 | 1.12 | 1.36
in vitro model: cholesterol-high 0.2 mM, time point: terminal (~4-5 doublings, model-specific) | 0.0496 | 0.999 | -0.642 | 1.19 | 0.947
in vitro model: dormancy (butyrate + nitrate, low O2), time point: constant (~7 days, model-specific) | 0.0511 | 0.899 | 0.22 | 0.0544 | -0.43
in vitro model: dormancy (butyrate + nitrate, low O2), time point: terminal (~4-5 doublings, model-specific) | 0.032 | 0.983 | -0.177 | 0.0788 | -0.459
in vitro model: standard 7H9 glycerol, time point: constant = terminal | 0.072 | 0.922 | -0.0207 | -0.0622 | 0.308
in vitro model: valerate, time point: constant (~7 days, model-specific) | 0.0905 | 0.904 | -0.217 | 1.07 | –
in vitro model: valerate, time point: terminal (~4-5 doublings, model-specific) | 0.0466 | 0.947 | -0.0362 | 1.15 | 0.748
